ChEMBL document CHEMBL3046216, “Synthesis, biological evaluation and QSAR study of a series of substituted quinazolines as antimicrobial agents” (2013)
In brackets after ≈: the same amount, converted by molar mass. Activity calls are given as the source filed them. No cut-off for these calls is given here.

Each molecule was assayed on Pseudomonas aeruginosa (assay: Antimicrobial activity against Pseudomonas aeruginosa ATCC 27853 assessed as growth inhibition after 24 hr by NCCLS broth dilution method). Conditions: not given.
Type: functional

SMILES | MIC
O=C(Nc1ccccc1)Nc1ccc2ncnc(Sc3nnc(-c4cccnc4)o3)c2c1 | inactive
O=C(Nc1ccc(Cl)cc1)Nc1ccc2ncnc(Sc3nnc(-c4cccnc4)o3)c2c1 | inactive
CN1CCN(c2cc3ncnc(Sc4nnc(-c5cccnc5)o4)c3cc2NC(=S)NC2CCCCC2)CC1 | inactive
CC1(C)S[C@@H]2[C@H](NC(=O)[C@H](N)c3ccccc3)C(=O)N2[C@H]1C(=O)O.O.O.O [AMPICILLIN TRIHYDRATE] | inactive
Cc1ccccc1NC(=O)Nc1ccc2ncnc(Sc3nnc(-c4cccnc4)o3)c2c1 | inactive
Fc1ccc(NC(=S)Nc2ccc3ncnc(Sc4nnc(-c5cccnc5)o4)c3c2)cc1 | inactive
Cc1cccc(NC(=O)Nc2ccc3ncnc(Sc4nnc(-c5cccnc5)o4)c3c2)c1 | inactive
CC1COc2c(N3CCN(C)CC3)c(F)cc3c(=O)c(C(=O)O)cn1c23 (stereo unspecified) [OFLOXACIN] | inactive
Cc1cccc(NC(=S)Nc2cc3c(Sc4nnc(-c5cccnc5)o4)ncnc3cc2N2CCN(C)CC2)c1 | inactive

Same assay, conditions: ATCC 27853, 24 h

SMILES | MIC
O=C(Nc1ccccc1)Nc1ccc2ncnc(Sc3nnc(-c4cccnc4)o3)c2c1 | 50 µg/mL (≈ 113 µM)
O=C(Nc1ccc(Cl)cc1)Nc1ccc2ncnc(Sc3nnc(-c4cccnc4)o3)c2c1 | 25 µg/mL (≈ 52.5 µM)
CN1CCN(c2cc3ncnc(Sc4nnc(-c5cccnc5)o4)c3cc2NC(=S)NC2CCCCC2)CC1 | 50 µg/mL (≈ 89 µM)
Cc1ccccc1NC(=O)Nc1ccc2ncnc(Sc3nnc(-c4cccnc4)o3)c2c1 | 75 µg/mL (≈ 165 µM)
Fc1ccc(NC(=S)Nc2ccc3ncnc(Sc4nnc(-c5cccnc5)o4)c3c2)cc1 | 50 µg/mL (≈ 105 µM)
Cc1cccc(NC(=O)Nc2ccc3ncnc(Sc4nnc(-c5cccnc5)o4)c3c2)c1 | 50 µg/mL (≈ 110 µM)
CC1COc2c(N3CCN(C)CC3)c(F)cc3c(=O)c(C(=O)O)cn1c23 (stereo unspecified) [OFLOXACIN] | 10 µg/mL (≈ 27.7 µM)
Cc1cccc(NC(=S)Nc2cc3c(Sc4nnc(-c5cccnc5)o4)ncnc3cc2N2CCN(C)CC2)c1 | 100 µg/mL (≈ 176 µM)

The molecules below were run on Bacillus subtilis (assay: Antimicrobial activity against Bacillus subtilis ATCC 6633 assessed as growth inhibition after 24 hr by NCCLS broth dilution method). Conditions: not given.
Type: functional

SMILES | MIC
O=C(Nc1ccccc1)Nc1ccc2ncnc(Sc3nnc(-c4cccnc4)o3)c2c1 | inactive
O=C(Nc1ccc(Cl)cc1)Nc1ccc2ncnc(Sc3nnc(-c4cccnc4)o3)c2c1 | inactive
CN1CCN(c2cc3ncnc(Sc4nnc(-c5cccnc5)o4)c3cc2NC(=S)NC2CCCCC2)CC1 | inactive
CC1(C)S[C@@H]2[C@H](NC(=O)[C@H](N)c3ccccc3)C(=O)N2[C@H]1C(=O)O.O.O.O [AMPICILLIN TRIHYDRATE] | inactive
Cc1ccccc1NC(=O)Nc1ccc2ncnc(Sc3nnc(-c4cccnc4)o3)c2c1 | inactive
Fc1ccc(NC(=S)Nc2ccc3ncnc(Sc4nnc(-c5cccnc5)o4)c3c2)cc1 | inactive
Cc1cccc(NC(=O)Nc2ccc3ncnc(Sc4nnc(-c5cccnc5)o4)c3c2)c1 | inactive
CC1COc2c(N3CCN(C)CC3)c(F)cc3c(=O)c(C(=O)O)cn1c23 (stereo unspecified) [OFLOXACIN] | inactive
Cc1cccc(NC(=S)Nc2cc3c(Sc4nnc(-c5cccnc5)o4)ncnc3cc2N2CCN(C)CC2)c1 | inactive

Same assay, conditions: ATCC 6633, 24 h

SMILES | MIC
O=C(Nc1ccccc1)Nc1ccc2ncnc(Sc3nnc(-c4cccnc4)o3)c2c1 | 25 µg/mL (≈ 56.6 µM)
O=C(Nc1ccc(Cl)cc1)Nc1ccc2ncnc(Sc3nnc(-c4cccnc4)o3)c2c1 | 12.5 µg/mL (≈ 26.3 µM)
CN1CCN(c2cc3ncnc(Sc4nnc(-c5cccnc5)o4)c3cc2NC(=S)NC2CCCCC2)CC1 | 75 µg/mL (≈ 134 µM)
CC1(C)S[C@@H]2[C@H](NC(=O)[C@H](N)c3ccccc3)C(=O)N2[C@H]1C(=O)O.O.O.O [AMPICILLIN TRIHYDRATE] | 0.25 µg/mL
Cc1ccccc1NC(=O)Nc1ccc2ncnc(Sc3nnc(-c4cccnc4)o3)c2c1 | 50 µg/mL (≈ 110 µM)
Fc1ccc(NC(=S)Nc2ccc3ncnc(Sc4nnc(-c5cccnc5)o4)c3c2)cc1 | 6.25 µg/mL (≈ 13.1 µM)
Cc1cccc(NC(=O)Nc2ccc3ncnc(Sc4nnc(-c5cccnc5)o4)c3c2)c1 | 25 µg/mL (≈ 54.9 µM)
CC1COc2c(N3CCN(C)CC3)c(F)cc3c(=O)c(C(=O)O)cn1c23 (stereo unspecified) [OFLOXACIN] | 0.125 µg/mL (≈ 0.346 µM)
Cc1cccc(NC(=S)Nc2cc3c(Sc4nnc(-c5cccnc5)o4)ncnc3cc2N2CCN(C)CC2)c1 | 25 µg/mL (≈ 43.9 µM)

Each molecule was assayed on Escherichia coli (assay: Antimicrobial activity against Escherichia coli ATCC 25922 assessed as growth inhibition after 24 hr by NCCLS broth dilution method). Conditions: not given.
Type: functional

SMILES | MIC
O=C(Nc1ccccc1)Nc1ccc2ncnc(Sc3nnc(-c4cccnc4)o3)c2c1 | inactive
O=C(Nc1ccc(Cl)cc1)Nc1ccc2ncnc(Sc3nnc(-c4cccnc4)o3)c2c1 | inactive
CN1CCN(c2cc3ncnc(Sc4nnc(-c5cccnc5)o4)c3cc2NC(=S)NC2CCCCC2)CC1 | inactive
CC1(C)S[C@@H]2[C@H](NC(=O)[C@H](N)c3ccccc3)C(=O)N2[C@H]1C(=O)O.O.O.O [AMPICILLIN TRIHYDRATE] | inactive
Cc1ccccc1NC(=O)Nc1ccc2ncnc(Sc3nnc(-c4cccnc4)o3)c2c1 | inactive
Fc1ccc(NC(=S)Nc2ccc3ncnc(Sc4nnc(-c5cccnc5)o4)c3c2)cc1 | inactive
Cc1cccc(NC(=O)Nc2ccc3ncnc(Sc4nnc(-c5cccnc5)o4)c3c2)c1 | inactive
CC1COc2c(N3CCN(C)CC3)c(F)cc3c(=O)c(C(=O)O)cn1c23 (stereo unspecified) [OFLOXACIN] | inactive
Cc1cccc(NC(=S)Nc2cc3c(Sc4nnc(-c5cccnc5)o4)ncnc3cc2N2CCN(C)CC2)c1 | inactive

Same assay, conditions: ATCC 25922, 24 h

SMILES | MIC
O=C(Nc1ccccc1)Nc1ccc2ncnc(Sc3nnc(-c4cccnc4)o3)c2c1 | 25 µg/mL (≈ 56.6 µM)
O=C(Nc1ccc(Cl)cc1)Nc1ccc2ncnc(Sc3nnc(-c4cccnc4)o3)c2c1 | 75 µg/mL (≈ 158 µM)
CN1CCN(c2cc3ncnc(Sc4nnc(-c5cccnc5)o4)c3cc2NC(=S)NC2CCCCC2)CC1 | 25 µg/mL (≈ 44.5 µM)
CC1(C)S[C@@H]2[C@H](NC(=O)[C@H](N)c3ccccc3)C(=O)N2[C@H]1C(=O)O.O.O.O [AMPICILLIN TRIHYDRATE] | 10 µg/mL
Cc1ccccc1NC(=O)Nc1ccc2ncnc(Sc3nnc(-c4cccnc4)o3)c2c1 | 25 µg/mL (≈ 54.9 µM)
Fc1ccc(NC(=S)Nc2ccc3ncnc(Sc4nnc(-c5cccnc5)o4)c3c2)cc1 | 12.5 µg/mL (≈ 26.3 µM)
Cc1cccc(NC(=O)Nc2ccc3ncnc(Sc4nnc(-c5cccnc5)o4)c3c2)c1 | 12.5 µg/mL (≈ 27.4 µM)
CC1COc2c(N3CCN(C)CC3)c(F)cc3c(=O)c(C(=O)O)cn1c23 (stereo unspecified) [OFLOXACIN] | 0.125 µg/mL (≈ 0.346 µM)
Cc1cccc(NC(=S)Nc2cc3c(Sc4nnc(-c5cccnc5)o4)ncnc3cc2N2CCN(C)CC2)c1 | 25 µg/mL (≈ 43.9 µM)

What follows are molecules tested on Staphylococcus aureus (assay: Antimicrobial activity against Staphylococcus aureus ATCC 25923 assessed as growth inhibition after 24 hr by NCCLS broth dilution method). Conditions: not given.
Type: functional

SMILES | MIC
O=C(Nc1ccccc1)Nc1ccc2ncnc(Sc3nnc(-c4cccnc4)o3)c2c1 | inactive
O=C(Nc1ccc(Cl)cc1)Nc1ccc2ncnc(Sc3nnc(-c4cccnc4)o3)c2c1 | inactive
CN1CCN(c2cc3ncnc(Sc4nnc(-c5cccnc5)o4)c3cc2NC(=S)NC2CCCCC2)CC1 | inactive
CC1(C)S[C@@H]2[C@H](NC(=O)[C@H](N)c3ccccc3)C(=O)N2[C@H]1C(=O)O.O.O.O [AMPICILLIN TRIHYDRATE] | inactive
Cc1ccccc1NC(=O)Nc1ccc2ncnc(Sc3nnc(-c4cccnc4)o3)c2c1 | inactive
Fc1ccc(NC(=S)Nc2ccc3ncnc(Sc4nnc(-c5cccnc5)o4)c3c2)cc1 | inactive
Cc1cccc(NC(=O)Nc2ccc3ncnc(Sc4nnc(-c5cccnc5)o4)c3c2)c1 | inactive
CC1COc2c(N3CCN(C)CC3)c(F)cc3c(=O)c(C(=O)O)cn1c23 (stereo unspecified) [OFLOXACIN] | inactive
Cc1cccc(NC(=S)Nc2cc3c(Sc4nnc(-c5cccnc5)o4)ncnc3cc2N2CCN(C)CC2)c1 | inactive

Same assay, conditions: ATCC 25923, 24 h

SMILES | MIC
O=C(Nc1ccccc1)Nc1ccc2ncnc(Sc3nnc(-c4cccnc4)o3)c2c1 | 12.5 µg/mL (≈ 28.3 µM)
O=C(Nc1ccc(Cl)cc1)Nc1ccc2ncnc(Sc3nnc(-c4cccnc4)o3)c2c1 | 6.25 µg/mL (≈ 13.1 µM)
CN1CCN(c2cc3ncnc(Sc4nnc(-c5cccnc5)o4)c3cc2NC(=S)NC2CCCCC2)CC1 | 100 µg/mL (≈ 178 µM)
CC1(C)S[C@@H]2[C@H](NC(=O)[C@H](N)c3ccccc3)C(=O)N2[C@H]1C(=O)O.O.O.O [AMPICILLIN TRIHYDRATE] | 0.05 µg/mL
Cc1ccccc1NC(=O)Nc1ccc2ncnc(Sc3nnc(-c4cccnc4)o3)c2c1 | 25 µg/mL (≈ 54.9 µM)
Fc1ccc(NC(=S)Nc2ccc3ncnc(Sc4nnc(-c5cccnc5)o4)c3c2)cc1 | 6.25 µg/mL (≈ 13.1 µM)
Cc1cccc(NC(=O)Nc2ccc3ncnc(Sc4nnc(-c5cccnc5)o4)c3c2)c1 | 25 µg/mL (≈ 54.9 µM)
CC1COc2c(N3CCN(C)CC3)c(F)cc3c(=O)c(C(=O)O)cn1c23 (stereo unspecified) [OFLOXACIN] | 0.25 µg/mL (≈ 0.692 µM)
Cc1cccc(NC(=S)Nc2cc3c(Sc4nnc(-c5cccnc5)o4)ncnc3cc2N2CCN(C)CC2)c1 | 50 µg/mL (≈ 87.8 µM)
